Measured values as given in ChEMBL document CHEMBL4196005, “Novel butanehydrazide derivatives of purine-2,6-dione as dual PDE4/7 inhibitors with potential anti-inflammatory activity: Design, synthesis and biological evaluation” (Eur J Med Chem, 2018).
Calls of active or inactive are those of the source. No cut-off for these calls is given here.

What was measured:
[1] = biological target: 3',5'-cyclic-AMP phosphodiesterase 4B (Homo sapiens, UniProt Q07343); test: Inhibition of human GST-tagged PDE4B expressed in baculovirus infected Sf9 insect cells using cAMP as substrate after 10 mins by PDE-Glo Phosphodiesterase Assay
[2] = biological target: T1, High affinity 3',5'-cyclic-AMP phosphodiesterase 7A (Homo sapiens, UniProt Q13946); test: Inhibition of human GST-tagged PDE7A expressed in baculovirus infected Sf9 insect cells using cAMP as substrate after 10 mins by PDE-Glo Phosphodiesterase Assay
Rattus norvegicus [3] = test: Antiinflammatory activity in albino Wistar rat assessed as inhibition of LPS-induced TNFalpha production in plasma at 50 mg/kg, ip after 1.5 hrs by ELISA relative to control; format: functional
[4] = biological target: T1, High affinity 3',5'-cyclic-AMP phosphodiesterase 7A; test: Inhibition of human C-terminal FLAG-tagged PDE7A expressed in baculovirus infected Sf9 cells using [3H]-cAMP as substrate after 15 mins by scintillation proximity assay
[5] = Inhibition of human PDE4 using [3H]-cAMP as substrate after 15 mins by scintillation proximity assay
[6] = Inhibition of guinea pig PDE4 using [3H]cAMP as substrate after 30 mins
[7] = biological target: T1, High affinity 3',5'-cyclic-AMP phosphodiesterase 7A; test: Inhibition of human recombinant FLAG-tagged PDE7A expressed in African green monkey COS7 cells using [3H]cAMP as substrate after 30 mins by scintillation counting analysis; format: cell-based
Rattus norvegicus [8] = test: Antiinflammatory activity in albino Wistar rat assessed as inhibition of LPS-induced TNFalpha production in plasma at 50 mg/kg, ip after 1 hr by ELISA; format: functional, organism-based
Rattus norvegicus [9] = test: Antiinflammatory activity in albino Wistar rat assessed as inhibition of LPS-induced TNFalpha production in plasma at 50 mg/kg, ip after 2 hrs by ELISA; format: functional, organism-based
[10] = biological target: 3',5'-cyclic-AMP phosphodiesterase 4D (Homo sapiens, UniProt Q08499); test: Inhibition of PDE4D3 (unknown origin) using [3H]cAMP as substrate preincubated for 5 mins followed by substrate addition and measured after 15 mins by scintillation proximity assay
[11] = biological target: T1, High affinity 3',5'-cyclic-AMP phosphodiesterase 7A; test: Inhibition of PDE7A1 (unknown origin) expressed in baculovirus infected insect cells using [3H]cAMP as substrate preincubated for 5 mins followed by substrate addition and measured after 15 mins by scintillation proximity assay
[12] = Inhibition of PDE7 in human HUT78 cell lysate using cAMP as substrate after 20 mins by scintillation proximity assay
[13] = Inhibition of PDE4 in human HUT78 cell lysate using cAMP as substrate after 20 mins by scintillation proximity assay
Mus musculus = test: In vivo inhibition of PDE4 in Balb/c mouse assessed as plasma cAMP levels at 100 mg/kg, po after 20 mins by RIA (reference value: 80.5 pmol/ml); format: functional
[14] = Inhibition of PDE4 (unknown origin) using [3H]-cAMP as substrate after 60 mins by scintillation proximity assay; set-up: species or system Homo sapiens
[15] = Inhibition of human recombinant His-tagged PDE7 expressed in baculovirus infected Sf9 insect cells using [3H]-cAMP as substrate after 60 mins by scintillation proximity assay

T1 sequence (Q13946 whole entry): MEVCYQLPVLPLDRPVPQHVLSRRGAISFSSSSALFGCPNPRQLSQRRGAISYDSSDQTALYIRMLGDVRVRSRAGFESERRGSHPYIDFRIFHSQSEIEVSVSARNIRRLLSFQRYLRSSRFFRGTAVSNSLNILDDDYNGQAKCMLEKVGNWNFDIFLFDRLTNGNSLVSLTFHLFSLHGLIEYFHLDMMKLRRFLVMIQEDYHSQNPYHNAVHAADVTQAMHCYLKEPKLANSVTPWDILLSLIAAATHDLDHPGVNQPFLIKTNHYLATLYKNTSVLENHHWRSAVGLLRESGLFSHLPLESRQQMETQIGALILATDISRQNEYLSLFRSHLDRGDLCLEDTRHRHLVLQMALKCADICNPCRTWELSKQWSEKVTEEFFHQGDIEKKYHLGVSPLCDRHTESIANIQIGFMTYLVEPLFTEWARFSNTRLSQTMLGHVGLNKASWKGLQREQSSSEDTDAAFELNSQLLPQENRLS
Chain of 3',5'-cyclic-AMP phosphodiesterase 4B (Q07343 whole entry): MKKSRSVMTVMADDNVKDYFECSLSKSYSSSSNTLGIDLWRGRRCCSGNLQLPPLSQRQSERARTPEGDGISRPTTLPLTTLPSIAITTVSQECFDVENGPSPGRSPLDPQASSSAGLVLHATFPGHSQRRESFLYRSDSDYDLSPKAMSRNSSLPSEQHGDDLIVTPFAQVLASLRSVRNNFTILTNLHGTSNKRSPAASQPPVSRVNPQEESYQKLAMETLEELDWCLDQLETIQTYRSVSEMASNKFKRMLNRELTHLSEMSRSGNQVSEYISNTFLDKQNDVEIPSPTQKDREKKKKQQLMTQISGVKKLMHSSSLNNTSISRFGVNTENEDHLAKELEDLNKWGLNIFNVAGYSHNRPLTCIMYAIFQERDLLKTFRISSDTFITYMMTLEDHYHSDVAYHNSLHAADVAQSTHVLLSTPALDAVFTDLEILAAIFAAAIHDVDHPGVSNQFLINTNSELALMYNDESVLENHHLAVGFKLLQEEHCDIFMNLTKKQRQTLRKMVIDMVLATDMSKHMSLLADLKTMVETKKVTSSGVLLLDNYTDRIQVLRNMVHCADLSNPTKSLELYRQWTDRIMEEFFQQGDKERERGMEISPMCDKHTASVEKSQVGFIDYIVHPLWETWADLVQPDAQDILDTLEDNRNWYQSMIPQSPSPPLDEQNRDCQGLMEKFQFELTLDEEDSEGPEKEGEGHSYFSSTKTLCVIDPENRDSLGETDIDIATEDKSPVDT
Chain of 3',5'-cyclic-AMP phosphodiesterase 4D (Q08499 whole entry): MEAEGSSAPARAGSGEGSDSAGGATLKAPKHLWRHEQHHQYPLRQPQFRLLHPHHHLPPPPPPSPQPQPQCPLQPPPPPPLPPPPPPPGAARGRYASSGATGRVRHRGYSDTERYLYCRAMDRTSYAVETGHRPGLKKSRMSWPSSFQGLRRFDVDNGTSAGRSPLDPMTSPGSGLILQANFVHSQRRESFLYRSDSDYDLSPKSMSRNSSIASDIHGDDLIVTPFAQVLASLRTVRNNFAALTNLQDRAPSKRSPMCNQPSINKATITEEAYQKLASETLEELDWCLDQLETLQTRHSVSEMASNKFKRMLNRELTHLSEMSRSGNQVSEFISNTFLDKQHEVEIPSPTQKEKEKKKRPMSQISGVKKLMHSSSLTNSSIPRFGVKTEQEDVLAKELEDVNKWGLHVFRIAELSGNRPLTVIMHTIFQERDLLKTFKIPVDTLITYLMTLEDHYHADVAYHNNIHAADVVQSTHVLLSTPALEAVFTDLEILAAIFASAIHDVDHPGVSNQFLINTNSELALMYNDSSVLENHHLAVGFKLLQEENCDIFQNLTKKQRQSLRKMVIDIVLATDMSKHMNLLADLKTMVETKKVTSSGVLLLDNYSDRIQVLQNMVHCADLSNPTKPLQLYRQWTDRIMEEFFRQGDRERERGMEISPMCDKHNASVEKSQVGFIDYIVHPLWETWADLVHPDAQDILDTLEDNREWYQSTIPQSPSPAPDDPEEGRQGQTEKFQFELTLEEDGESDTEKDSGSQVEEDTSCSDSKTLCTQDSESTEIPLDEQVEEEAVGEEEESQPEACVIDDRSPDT

IC50 [1] | IC50 [2] | SMILES | other results
7.4 µM | 3.8 µM | Cn1c(=O)c2c(nc(NCc3ccco3)n2CCCC(=O)N/N=C/c2ccc(O)c(O)c2O)n(C)c1=O | inhibition in vivo at 50 mg/kg (Rattus norvegicus [3]): 88%
> 200 µM | > 200 µM | Cn1c(=O)c2c(ncn2CCCC(=O)N/N=C/c2ccccc2O)n(C)c1=O | –
4.4 µM | 10.5 µM | Cn1c(=O)c2c(nc(NCc3ccco3)n2CCCC(=O)N/N=C/c2ccc(O)cc2O)n(C)c1=O | –
– | – | COc1ccc(-c2cc3c(n2-c2ccc(S(=O)(=O)Nc4nc(C)cc(C)n4)cc2)CCC(N2CCN(C)CC2)C3)cc1C (stereo not given) | IC50 [4]: 0.014 µM; IC50 [5]: 0.63 µM
37 µM | 48.9 µM | CCOc1nc2c(c(=O)n(C)c(=O)n2C)n1CCCC(=O)N/N=C/c1ccccc1 | –
5.5 µM | 116 µM | Cn1c(=O)c2c(nc(NCc3ccccc3)n2CCCC(=O)N/N=C/c2ccc(O)cc2O)n(C)c1=O | –
> 200 µM | 33.6 µM | Cn1c(=O)c2c(nc(NCc3ccccc3)n2CCCC(=O)N/N=C/c2ccccc2O)n(C)c1=O | –
31.1 µM | 11.7 µM | CCCOc1nc2c(c(=O)n(C)c(=O)n2C)n1CCCC(=O)N/N=C/c1ccccc1O | –
– | – | CCOc1cc2cc(CO)c(CO)c(-c3ccnc(-n4nc(-c5cccnc5)c5ccccc5c4=O)c3)c2cc1OCC | IC50 [6]: 0.00013 µM; IC50 [7]: 1.7 µM
1.9 µM | 8.1 µM | Cn1c(=O)c2c(nc(NCc3ccccc3)n2CCCC(=O)N/N=C/c2ccc(O)c(O)c2O)n(C)c1=O | inhibition (Rattus norvegicus [8]): inactive; inhibition (Rattus norvegicus [9]): inactive; inhibition in vivo at 50 mg/kg (Rattus norvegicus [3]): 53%
> 200 µM | > 200 µM | CCOc1nc2c(c(=O)n(C)c(=O)n2C)n1CCCC(=O)N/N=C/c1ccc(OC)cc1O | –
1.8 µM | 9.5 µM | Cn1c(=O)c2c(nc(NCc3ccccn3)n2CCCC(=O)N/N=C/c2ccc(O)c(O)c2O)n(C)c1=O | –
– | – | COc1ccc(C2=NN(C3CCCC3)C(=O)C3CC=CCC23)cc1Cl (stereo not given) | IC50 [10]: 0.00078 µM; IC50 [11]: 0.018 µM
16.2 µM | 141 µM | CCOc1nc2c(c(=O)n(C)c(=O)n2C)n1CCCC(=O)N/N=C/c1ccc(O)cc1O | –
– | – | CCOC(=O)c1sc(Nc2nc(NCc3cc(OC)c(OC)c(OC)c3)cc(N3CCC(N(C)C)CC3)n2)nc1C | IC50 [12]: 0.003 µM; IC50 [13]: 3 µM
1.4 µM | 3.2 µM | Cn1c(=O)c2c(nc(NCCc3ccccc3)n2CCCC(=O)N/N=C/c2ccc(O)c(O)c2O)n(C)c1=O | inhibition in vivo at 50 mg/kg (Rattus norvegicus [3]): 84%

IC50 [1] | IC50 [2] | SMILES | other results
– | – | CCOC(=O)c1sc(Nc2nc(N3CCC(O)CC3)cc(N3CCC(O)CC3)n2)nc1C | IC50 [12]: 0.06 µM; IC50 [13]: 3.2 µM
> 200 µM | > 200 µM | Cn1c(=O)c2c(ncn2CCCC(=O)N/N=C/c2ccc(O)cc2O)n(C)c1=O | –
116 µM | 56.1 µM | CCCOc1nc2c(c(=O)n(C)c(=O)n2C)n1CCCC(=O)N/N=C/c1ccc(O)cc1O | –
70.8 µM | 69.8 µM | COc1ccc(/C=N/NC(=O)CCCn2c(NCc3ccco3)nc3c2c(=O)n(C)c(=O)n3C)c(O)c1 | –
12.5 µM | > 200 µM | Cn1c(=O)c2c(nc(NCc3ccco3)n2CCCC(=O)N/N=C/c2ccccc2O)n(C)c1=O | –
51.8 µM | 92.9 µM | CCCOc1nc2c(c(=O)n(C)c(=O)n2C)n1CCCC(=O)N/N=C/c1ccccc1 | –
28.2 µM | 85.6 µM | CC(C)Cn1c(=O)n(C)c(=O)c2[nH]cnc21 [ISOBUTYLMETHYLXANTHINE] | –
> 200 µM | > 200 µM | CCOc1nc2c(c(=O)n(C)c(=O)n2C)n1CCCC(=O)N/N=C/c1ccccc1OC | –
26.9 µM | 7.3 µM | Cn1c(=O)c2c(nc(NCCc3ccccc3)n2CCCC(=O)N/N=C/c2ccccc2O)n(C)c1=O | –
47.8 µM | 89.3 µM | CCCOc1nc2c(c(=O)n(C)c(=O)n2C)n1CCCC(=O)N/N=C/c1ccc(OC)cc1O | –
44 µM | 52.8 µM | COc1ccc(/C=N/NC(=O)CCCn2c(NCc3ccccc3)nc3c2c(=O)n(C)c(=O)n3C)c(O)c1 | –
175 µM | 2.1 µM | Cc1ccc([N+](=O)[O-])cc1S(=O)(=O)N(C)C | –
7.9 µM | 27.6 µM | CCOc1nc2c(c(=O)n(C)c(=O)n2C)n1CCCC(=O)N/N=C/c1ccccc1O | –
7.7 µM | > 200 µM | Cn1c(=O)c2c(nc(NCc3ccccn3)n2CCCC(=O)N/N=C/c2ccccc2O)n(C)c1=O | –
– | – | CCC(C)(O)c1oc(=O)c2ccccc2c1-c1ccc(OC)c(OC2CCCC2)c1 (stereo not given) | IC50 [14]: 3.8 µM; IC50 [15]: 3.1 µM

SMILES | IC50 [1] | IC50 [2] | other results
COc1ccc(C2CNC(=O)C2)cc1OC1CCCC1 (stereo not given) [ROLIPRAM] | – | > 200 µM | –
Cn1c(=O)c2nc[nH]c2n(C)c1=O.O [THEOPHYLLINE] | > 200 µM | – | Activity (Mus musculus): 296.9 pmol/mL
